# Source: patent US20260022142A1, “MACROCYCLIC IMMUNOMODULATORS” (Bristol-Myers Squibb Company, priority 2022, published 2026)
# Numbered stars: 1 amine (or outer) side, 2 acyl side, 3 side chain; on linkers, the order of the positions; unused ones are H or OH. Bridge positions count the residues as written; N and C are the ends. Square brackets hold non-standard residues; d marks the D form. Peptide text beside a SMILES is read from it. * marks the point of attachment. ξ: configuration not given here. Phe(4-COOH) = N[C@@H](Cc1ccc(C(=O)O)cc1)C(=O)O; Bip = N[C@@H](Cc1ccc(-c2ccccc2)cc1)C(=O)O; Phe(3-Me) = Cc1cccc(C[C@H](N)C(=O)O)c1; γGlu = O=C(O)[C@H](CCC(=O)[*:2])N[*:1]; βAsp = O=C(O)[C@H](CC(=O)[*:2])N[*:1]; ξBip = NC(Cc1ccc(-c2ccccc2)cc1)C(=O)O; Phe(2-F) = N[C@@H](Cc1ccccc1F)C(=O)O; 4Pal = N[C@@H](Cc1ccncc1)C(=O)O; Cha = N[C@@H](CC1CCCCC1)C(=O)O; Cit = NC(=O)NCCC[C@H](N)C(=O)O; NMeN = CN[C@@H](CC(N)=O)C(=O)O; dCha = N[C@H](CC1CCCCC1)C(=O)O; Thr(3ξ) = CC(O)[C@H](N)C(=O)O; Carboxymethyl = O=C(O)C*; Orn = NCCC[C@H](N)C(=O)O; Pra = C#CC[C@H](N)C(=O)O; Aun = NCCCCCCCCCCC(=O)O; Dab = NCC[C@H](N)C(=O)O; Dap = NC[C@H](N)C(=O)O; ξD = NC(CC(=O)O)C(=O)O; AEEA = NCCOCCOCC(=O)O
# Target: T1, PD-1/PD-L1 interaction (PE-labeled human PD-L1-Ig binding to Jurkat cell line over-expressing human PD-1) (Homo sapiens, UniProt Q15116)
# T1 construct: expressed in transfected cells; host or cells: Jurkat
# Experiment: Jurkat-PD-1 Cell Binding High-Content Screening Assay (CBA)
# Assay type: cell-based
# Settings: Jurkat cell line over-expressing human PD-1; PE-labeled PD-L1-Ig 20 nM final; read-out: Jurkat hPD1-PDL1 IC50
# In short: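 Jurkat-hPD-1 cells, DMEM/10% FCS; cpd 2 h 37° C; PE-PD-L1-Ig 20 nM final, 1 h; 4% PFA fix + Hoechst 33342, 3× dPBS wash; high-content imaging read-out.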
# T1 sequence (Q15116 25-288): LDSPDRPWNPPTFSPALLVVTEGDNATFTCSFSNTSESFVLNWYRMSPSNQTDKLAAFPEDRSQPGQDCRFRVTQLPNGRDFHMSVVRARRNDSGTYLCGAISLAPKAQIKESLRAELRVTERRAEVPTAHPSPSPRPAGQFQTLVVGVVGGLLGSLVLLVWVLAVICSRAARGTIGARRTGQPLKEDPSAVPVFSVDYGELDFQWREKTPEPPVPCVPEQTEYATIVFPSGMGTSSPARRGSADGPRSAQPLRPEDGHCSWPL
row,IC50 [nM],SMILES
1,66.1,CC(C)C[C@H]1NC(=O)[C@H](CCCN)NC(=O)[C@H](C(C)C)NC(=O)[C@H](Cc2ccc(-c3ccccc3)cc2)NC(=O)[C@H](C(C)C)NC(=O)[C@H](Cc2c[nH]c3ccccc23)NC(=O)[C@H](CC(=O)O)NC(=O)[C@H](Cc2ccc(OCC(=O)O)cc2)NC(=O)[C@H](CCCNC(=N)N)NC(=O)CSC[C@@H](C(=O)N(C)[C@@H](CC(N)=O)C(=O)NCCCCCCCCCCC(=O)O)NC(=O)[C@H](CO)NC(=O)[C@H](C(C)C)NC(=O)[C@H](CC2CCCCC2)NC(=O)[C@H](CCN)NC1=O [Compound 3438] ({CH2CO}-RY(Carboxymethyl)DWV[Bip]V[Orn][dL][Dab][Cha]VSC[NMeN][Aun]-OH; thioether N-14)
2,7.2,Cc1cccc(C[C@@H]2NC(=O)C(CC(=O)O)NC(=O)[C@H](Cc3ccc(OCC(=O)O)cc3)NC(=O)[C@H](CN)NC(=O)CSC[C@@H](C(=O)NCCOCCOCC(=O)N[C@@H](CN)C(=O)NCCCCCCCCCCC(=O)O)NC(=O)[C@H]([C@@H](C)O)NC(=O)[C@H](C(C)C)NC(=O)[C@H](CC3CCCCC3)NC(=O)[C@H](CCN)NC(=O)[C@@H](CC(C)C)NC(=O)[C@H](CCCN)NC(=O)[C@H](CCCNC(N)=O)NC(=O)C(Cc3ccc(-c4ccccc4)cc3)NC(=O)[C@H](C(C)C)NC2=O)c1 (stereo partly drawn) [Compound 1176] ({CH2CO}-[Dap]Y(Carboxymethyl)[ξD][Phe(3-Me)]V[ξBip][Cit][Orn][dL][Dab][Cha]VTC[AEEA][Dap][Aun]-OH; thioether N-14)
3,22.5,CC[C@H](C)[C@@H]1NC(=O)[C@H](Cc2ccc(-c3ccccc3)cc2)NC(=O)[C@H](C(C)C)NC(=O)[C@H](Cc2cccc(C)c2)NC(=O)[C@H](CC(=O)O)NC(=O)[C@H](Cc2ccc(OCC(=O)O)cc2)NC(=O)[C@H](CN)NC(=O)CSC[C@@H](C(=O)N[C@@H](CCN)C(=O)NCCOCCOCC(=O)NCCCCCCCCCCC(=O)O)NC(=O)[C@H](CCCNC(=N)N)NC(=O)[C@H](C(C)C)NC(=O)[C@H](CC2CCCCC2)NC(=O)[C@H](CCN)NC(=O)[C@@H](CC(C)C)NC(=O)[C@H](CCCN)NC1=O [Compound 2636] ({CH2CO}-[Dap]Y(Carboxymethyl)D[Phe(3-Me)]V[Bip]I[Orn][dL][Dab][Cha]VRC[Dab][AEEA][Aun]-OH; thioether N-14)
4,30.2,CC(C)C[C@@H]1NC(=O)[C@H](Cc2c[nH]c3ccccc23)NC(=O)[C@H](CC(=O)O)NC(=O)[C@H](Cc2ccc(OCC(=O)O)cc2)NC(=O)[C@H](CN)NC(=O)CSC[C@@H](C(=O)N[C@@H](CCN)C(=O)NCCCCCCCCCCC(=O)O)NC(=O)[C@H](CO)NC(=O)[C@H](C(C)O)NC(=O)[C@H](CC2CCCCC2)NC(=O)[C@H](CCN)NC(=O)[C@@H](CC(C)C)NC(=O)[C@H](CCCN)NC(=O)[C@H](C(C)C)NC(=O)[C@H](Cc2ccc(-c3ccccc3)cc2)NC1=O (stereo partly drawn) [Compound 3685] ({CH2CO}-[Dap]Y(Carboxymethyl)DWL[Bip]V[Orn][dL][Dab][Cha][Thr(3ξ)]SC[Dab][Aun]-OH; thioether N-14)
5,7.9,Cc1cccc(C[C@@H]2NC(=O)[C@H](CC(=O)O)NC(=O)[C@H](Cc3ccc(OCC(=O)O)cc3)NC(=O)[C@H](CCCNC(=N)N)NC(=O)CSC[C@@H](C(=O)N[C@@H](CCN)C(=O)NCCCCCCCCCCC(=O)O)NC(=O)[C@H](CCCN)NC(=O)[C@H](C(C)C)NC(=O)[C@H](CC3CCCCC3)NC(=O)[C@H](CCN)NC(=O)[C@@H](CC(C)C)NC(=O)[C@H](CCCN)NC(=O)[C@H](CCCNC(N)=O)NC(=O)[C@H](Cc3ccc(-c4ccccc4)cc3)NC(=O)[C@H](C(C)C)NC2=O)c1 [Compound 3306] ({CH2CO}-RY(Carboxymethyl)D[Phe(3-Me)]V[Bip][Cit][Orn][dL][Dab][Cha]V[Orn]C[Dab][Aun]-OH; thioether N-14)
6,16.1,Cc1cccc(C[C@@H]2NC(=O)[C@H](CC(=O)O)NC(=O)[C@H](Cc3ccc(OCC(=O)O)cc3)NC(=O)[C@H](CN)NC(=O)CSC[C@@H](C(=O)N[C@@H](CCCCN)C(=O)NCCCCCCCCCCC(=O)O)NC(=O)[C@H](CN)NC(=O)[C@H](C(C)C)NC(=O)[C@H](CC3CCCCC3)NC(=O)[C@H](CCN)NC(=O)[C@@H](CC3CCCCC3)NC(=O)[C@H](CCCN)NC(=O)[C@H](C(C)C)NC(=O)[C@H](Cc3ccc(-c4ccccc4)cc3)NC(=O)[C@H](C(C)C)NC2=O)c1 [Compound 2686] ({CH2CO}-[Dap]Y(Carboxymethyl)D[Phe(3-Me)]V[Bip]V[Orn][dCha][Dab][Cha]V[Dap]CK[Aun]-OH; thioether N-14)
7,19.8,C#CC[C@H](NC(=O)COCCOCCNC(=O)[C@H](CCN)NC(=O)[C@@H]1CSCC(=O)N[C@@H](Cc2ccncc2)C(=O)N[C@@H](Cc2ccc(OCC(=O)O)cc2)C(=O)N[C@@H](CC(=O)O)C(=O)N[C@@H](Cc2c[nH]c3ccccc23)C(=O)N[C@@H](C(C)C)C(=O)N[C@@H](Cc2ccc(-c3ccccc3)cc2)C(=O)N[C@@H]([C@@H](C)CC)C(=O)N[C@@H](CCCN)C(=O)N[C@H](CC(C)C)C(=O)N[C@@H](CCN)C(=O)N[C@@H](CC(C)C)C(=O)N[C@@H](C(C)C)C(=O)N[C@@H]([C@@H](C)O)C(=O)N1)C(=O)NCCCCCCCCCCC(=O)O [Compound 1206] ({CH2CO}-[4Pal]Y(Carboxymethyl)DWV[Bip]I[Orn][dL][Dab]LVTC[Dab][AEEA][Pra][Aun]-OH; thioether N-14)
8,33.6,CC(C)C[C@H]1NC(=O)[C@H](CCCN)NC(=O)[C@H](Cc2ccc(O)cc2)NC(=O)[C@H](Cc2ccc(-c3ccccc3)cc2)NC(=O)[C@H](C(C)C)NC(=O)[C@H](Cc2c[nH]c3ccccc23)NC(=O)[C@H](CC(=O)O)NC(=O)[C@H](Cc2ccc(OCC(=O)O)cc2)NC(=O)[C@H](CC(N)=O)NC(=O)CSC[C@@H](C(=O)N[C@@H](CCN)C(=O)NCCCCCCCCCCC(=O)O)NC(=O)[C@H](C(C)O)NC(=O)[C@H](C(C)C)NC(=O)[C@H](CC2CCCCC2)NC(=O)[C@H](CCN)NC1=O (stereo partly drawn) [Compound 3421] ({CH2CO}-NY(Carboxymethyl)DWV[Bip]Y[Orn][dL][Dab][Cha]V[Thr(3ξ)]C[Dab][Aun]-OH; thioether N-14)
9,7.8,CC(C)C[C@H]1NC(=O)[C@H](CCCN)NC(=O)[C@H](CCCNC(N)=O)NC(=O)[C@H](Cc2ccc(-c3ccccc3)cc2)NC(=O)[C@H](C(C)C)NC(=O)[C@H](Cc2c[nH]c3ccccc23)NC(=O)[C@H](CC(=O)O)NC(=O)[C@H](Cc2ccc(OCC(=O)O)cc2)NC(=O)[C@H](CN)NC(=O)CSC[C@@H](C(=O)NCCOCCOCC(=O)N[C@@H](CCCCN)C(=O)NCCCCCCCCCCC(=O)O)NC(=O)[C@H](CCCNC(N)=O)NC(=O)[C@H](C(C)C)NC(=O)[C@H](CC2CCCCC2)NC(=O)[C@H](CCN)NC1=O [Compound 3146] ({CH2CO}-[Dap]Y(Carboxymethyl)DWV[Bip][Cit][Orn][dL][Dab][Cha]V[Cit]C[AEEA]K[Aun]-OH; thioether N-14)
10,14,Cc1cccc(C[C@@H]2NC(=O)[C@H](CC(=O)O)NC(=O)[C@H](Cc3ccc(OCC(=O)O)cc3)NC(=O)[C@H](CN)NC(=O)CSC[C@@H](C(=O)N[C@@H](CCN)C(=O)NCCOCCOCC(=O)NCCCCCCCCCCC(=O)O)NC(=O)[C@H](CCC(=O)O)NC(=O)[C@H](C(C)C)NC(=O)[C@H](Cc3ccccc3F)NC(=O)[C@H](CCN)NC(=O)[C@@H](CC(C)C)NC(=O)[C@H](CCCN)NC(=O)[C@H](Cc3ccc(OCC(=O)O)cc3)NC(=O)[C@H](Cc3ccc(-c4ccccc4)cc3)NC(=O)[C@H](Cc3ccc(C(=O)O)cc3)NC2=O)c1 [Compound 1266] ({CH2CO}-[Dap]Y(Carboxymethyl)D[Phe(3-Me)][Phe(4-COOH)][Bip]Y(Carboxymethyl)[Orn][dL][Dab][Phe(2-F)]VEC[Dab][AEEA][Aun]-OH; thioether N-14)
11,4.9,Cc1cccc(C[C@@H]2NC(=O)[C@H](CC(=O)O)NC(=O)[C@H](Cc3ccc(OCC(=O)O)cc3)NC(=O)[C@H](CN)NC(=O)CSC[C@@H](C(=O)N[C@@H](CCN)C(=O)NCCOCCOCC(=O)NCCCCCCCCCCC(=O)O)NC(=O)[C@H](CCCN)NC(=O)[C@H](C(C)C)NC(=O)[C@H](CC3CCCCC3)NC(=O)[C@H](CCN)NC(=O)[C@@H](CC(C)C)NC(=O)[C@H](CCCN)NC(=O)[C@H](Cc3ccc(O)cc3)NC(=O)[C@H](Cc3ccc(-c4ccccc4)cc3)NC(=O)[C@H](Cc3ccccc3)NC2=O)c1 [Compound 2063] ({CH2CO}-[Dap]Y(Carboxymethyl)D[Phe(3-Me)]F[Bip]Y[Orn][dL][Dab][Cha]V[Orn]C[Dab][AEEA][Aun]-OH; thioether N-14)
12,8.4,Cc1cccc(C[C@@H]2NC(=O)[C@H](CC(=O)O)NC(=O)[C@H](Cc3ccc(OCC(=O)O)cc3)NC(=O)[C@H](CN)NC(=O)CSC[C@@H](C(=O)N[C@@H](C)C(=O)N[C@@H](CC(=O)NCCOCCOCC(=O)N[C@@H](CCC(=O)NCCOCCOCC(=O)NCCCCCCCCCCC(=O)O)C(=O)O)C(=O)O)NC(=O)[C@H]([C@@H](C)O)NC(=O)[C@H](C(C)C)NC(=O)[C@H](CC3CCCCC3)NC(=O)[C@H](CCN)NC(=O)[C@@H](CC(C)C)NC(=O)[C@H](CCCN)NC(=O)[C@H](CCCNC(N)=O)NC(=O)[C@H](Cc3ccc(-c4ccccc4)cc3)NC(=O)[C@H](C(C)C)NC2=O)c1 [Compound 1018] ({CH2CO}-[Dap]Y(Carboxymethyl)D[Phe(3-Me)]V[Bip][Cit][Orn][dL][Dab][Cha]VTCA[βAsp][AEEA][γGlu][AEEA][Aun]-OH; thioether N-14)
13,24.5,CC(C)C[C@H]1NC(=O)[C@H](CCCN)NC(=O)[C@H](C(C)C)NC(=O)[C@H](Cc2ccc(-c3ccccc3)cc2)NC(=O)[C@H](C(C)C)NC(=O)[C@H](Cc2c[nH]c3ccccc23)NC(=O)[C@H](CC(=O)O)NC(=O)[C@H](Cc2ccc(C(=O)O)cc2)NC(=O)[C@H](Cc2ccc(OCC(=O)O)cc2)NC(=O)CSC[C@@H](C(=O)NCC(=O)NCCOCCOCC(=O)N[C@@H](CCCN)C(=O)NCCCCCCCCCCC(=O)O)NC(=O)[C@H](CCCN)NC(=O)[C@H](C(C)C)NC(=O)[C@H](CC2CCCCC2)NC(=O)[C@H](CC(N)=O)NC1=O [Compound 3206] ({CH2CO}-Y(Carboxymethyl)[Phe(4-COOH)]DWV[Bip]V[Orn][dL]N[Cha]V[Orn]CG[AEEA][Orn][Aun]-OH; thioether N-14)
